Reference: PubChem BioAssay (NCI)
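These data come from cells grown in 96-well plates and exposed to compound for 48 hours at five concentrations. GI50: concentration for 50% inhibition of growth. TGI marks complete inhibition of growth.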

What was measured:
Assay in all cases: NCI tumour cell line growth inhibition, 48 h
SNB-75 CNS = tested on: SNB-75 CNS
UACC-257 melanoma = tested on: UACC-257 melanoma
NCI/ADR-RES ovarian = tested on: NCI/ADR-RES ovarian
MCF7 breast = tested on: MCF7 breast
HS 578T breast = tested on: HS 578T breast
A498 renal = tested on: A498 renal
RXF 393 renal = tested on: RXF 393 renal
SK-MEL-5 melanoma = tested on: SK-MEL-5 melanoma
OVCAR-8 ovarian = tested on: OVCAR-8 ovarian
SNB-19 CNS = tested on: SNB-19 CNS
LOX IMVI melanoma = tested on: LOX IMVI melanoma
NCI-H23 lung = tested on: NCI-H23 lung
BT-549 breast = tested on: BT-549 breast
HCC-2998 colon = tested on: HCC-2998 colon
KM12 colon = tested on: KM12 colon
TK-10 renal = tested on: TK-10 renal
NCI-H522 lung = tested on: NCI-H522 lung
MDA-MB-231 breast = tested on: MDA-MB-231 breast
NCI-H226 lung = tested on: NCI-H226 lung
CAKI-1 renal = tested on: CAKI-1 renal
OVCAR-3 ovarian = tested on: OVCAR-3 ovarian
MDA-MB-435 = tested on: MDA-MB-435
SK-OV-3 ovarian = tested on: SK-OV-3 ovarian
HCT-116 colon = tested on: HCT-116 colon
OVCAR-4 ovarian = tested on: OVCAR-4 ovarian
OVCAR-5 ovarian = tested on: OVCAR-5 ovarian
NCI-H460 lung = tested on: NCI-H460 lung
SF-295 CNS = tested on: SF-295 CNS
MOLT-4 leukemia = tested on: MOLT-4 leukemia
IGROV1 ovarian = tested on: IGROV1 ovarian
HT29 colon = tested on: HT29 colon
SF-539 CNS = tested on: SF-539 CNS
T-47D breast = tested on: T-47D breast
SF-268 CNS = tested on: SF-268 CNS
RPMI-8226 leukemia = tested on: RPMI-8226 leukemia
A549 NSCLC = tested on: A549 NSCLC
SN12C renal = tested on: SN12C renal
K-562 leukemia = tested on: K-562 leukemia
UACC-62 melanoma = tested on: UACC-62 melanoma
COLO 205 colon = tested on: COLO 205 colon
HCT-15 colon = tested on: HCT-15 colon
DU-145 prostate = tested on: DU-145 prostate
MALME-3M melanoma = tested on: MALME-3M melanoma
SR leukemia = tested on: SR leukemia
U251 CNS = tested on: U251 CNS
SK-MEL-2 melanoma = tested on: SK-MEL-2 melanoma
786-0 renal = tested on: 786-0 renal
M14 melanoma = tested on: M14 melanoma
EKVX NSCLC = tested on: EKVX NSCLC
UO-31 renal = tested on: UO-31 renal
SW-620 colon = tested on: SW-620 colon
PC-3 prostate = tested on: PC-3 prostate
SK-MEL-28 melanoma = tested on: SK-MEL-28 melanoma
CCRF-CEM leukemia = tested on: CCRF-CEM leukemia
ACHN renal = tested on: ACHN renal

For FC(F)(F)c1nc(N2CCCC2)ncc1-c1nnnn1-c1ccc(Cl)cc1, the GI50 (SNB-75 CNS) was 12 µM, the TGI (SNB-75 CNS) was 65.3 µM and the GI50 (UACC-257 melanoma) was 7.11 µM. It also gave a TGI (UACC-257 melanoma) of 69.5 µM, a GI50 (NCI/ADR-RES ovarian) of 23 µM and a TGI (NCI/ADR-RES ovarian) of 62.2 µM. It also gave a GI50 (MCF7 breast) of 14.3 µM, a TGI (MCF7 breast) greater than 100 µM and a GI50 (HS 578T breast) of 21.2 µM. For the same molecule, the TGI (HS 578T breast) was greater than 100 µM, the GI50 (A498 renal) was 18.3 µM and the TGI (A498 renal) was 62.7 µM. It also gave a GI50 (RXF 393 renal) of 14.9 µM, a TGI (RXF 393 renal) of 51.7 µM and a GI50 (SK-MEL-5 melanoma) of 12 µM. The TGI (SK-MEL-5 melanoma) was 28.3 µM, the GI50 (OVCAR-8 ovarian) was 25 µM and the TGI (OVCAR-8 ovarian) was greater than 100 µM. For the same molecule, the GI50 (SNB-19 CNS) was 30.9 µM, the TGI (SNB-19 CNS) was greater than 100 µM and the GI50 (LOX IMVI melanoma) was 15.4 µM. For the same molecule, the TGI (LOX IMVI melanoma) was 49.5 µM, the GI50 (NCI-H23 lung) was 20 µM and the TGI (NCI-H23 lung) was 51.8 µM. The GI50 (BT-549 breast) was 31 µM, the TGI (BT-549 breast) was greater than 100 µM and the GI50 (HCC-2998 colon) was 26.7 µM. For the same molecule, the TGI (HCC-2998 colon) was 72.2 µM, the GI50 (KM12 colon) was 15 µM and the TGI (KM12 colon) was 48 µM. It also gave a GI50 (TK-10 renal) of 15.4 µM, a TGI (TK-10 renal) of 75.6 µM and a GI50 (NCI-H522 lung) of 10.2 µM. It also gave a TGI (NCI-H522 lung) of 59 µM, a GI50 (MDA-MB-231 breast) of 24.6 µM and a TGI (MDA-MB-231 breast) greater than 100 µM. For the same molecule, the GI50 (NCI-H226 lung) was 13.9 µM, the TGI (NCI-H226 lung) was greater than 100 µM and the GI50 (CAKI-1 renal) was 17.5 µM. For the same molecule, the TGI (CAKI-1 renal) was 88.2 µM, the GI50 (OVCAR-3 ovarian) was 18.9 µM and the TGI (OVCAR-3 ovarian) was 83.4 µM. For the same molecule, the GI50 (MDA-MB-435) was 15.2 µM, the TGI (MDA-MB-435) was 40.8 µM and the GI50 (SK-OV-3 ovarian) was 31.8 µM. It also gave a TGI (SK-OV-3 ovarian) greater than 100 µM, a GI50 (HCT-116 colon) of 23 µM and a TGI (HCT-116 colon) of 54.6 µM. It also gave a GI50 (OVCAR-4 ovarian) of 6.7 µM, a TGI (OVCAR-4 ovarian) of 74.8 µM and a GI50 (OVCAR-5 ovarian) greater than 100 µM. The TGI (OVCAR-5 ovarian) was greater than 100 µM, the GI50 (NCI-H460 lung) was 11.7 µM and the TGI (NCI-H460 lung) was 90.2 µM. The GI50 (SF-295 CNS) was 19 µM, the TGI (SF-295 CNS) was greater than 100 µM and the GI50 (MOLT-4 leukemia) was 5.07 µM. For the same molecule, the TGI (MOLT-4 leukemia) was 25 µM, the GI50 (IGROV1 ovarian) was 25.5 µM and the TGI (IGROV1 ovarian) was greater than 100 µM. The GI50 (HT29 colon) was 20.4 µM, the TGI (HT29 colon) was 65.9 µM and the GI50 (SF-539 CNS) was 39.8 µM. It also gave a TGI (SF-539 CNS) greater than 100 µM, a GI50 (T-47D breast) of 5.29 µM and a TGI (T-47D breast) greater than 100 µM. For the same molecule, the GI50 (SF-268 CNS) was 23.7 µM, the TGI (SF-268 CNS) was greater than 100 µM and the GI50 (RPMI-8226 leukemia) was 1.41 µM. The TGI (RPMI-8226 leukemia) was 12.8 µM, the GI50 (A549 NSCLC) was 13.4 µM and the TGI (A549 NSCLC) was greater than 100 µM. It also gave a GI50 (SN12C renal) of 26.3 µM, a TGI (SN12C renal) greater than 100 µM and a GI50 (K-562 leukemia) of 3 µM. For the same molecule, the TGI (K-562 leukemia) was 22.6 µM, the GI50 (UACC-62 melanoma) was 7.49 µM and the TGI (UACC-62 melanoma) was greater than 100 µM. It also gave a GI50 (COLO 205 colon) of 10.7 µM, a TGI (COLO 205 colon) of 27.5 µM and a GI50 (HCT-15 colon) of 28.5 µM. The TGI (HCT-15 colon) was greater than 100 µM, the GI50 (DU-145 prostate) was 48.4 µM and the TGI (DU-145 prostate) was greater than 100 µM. The GI50 (MALME-3M melanoma) was 16.9 µM, the TGI (MALME-3M melanoma) was 42.6 µM and the GI50 (SR leukemia) was 2.53 µM. It also gave a TGI (SR leukemia) of 6.24 µM, a GI50 (U251 CNS) of 33 µM and a TGI (U251 CNS) greater than 100 µM. For the same molecule, the GI50 (SK-MEL-2 melanoma) was 18 µM, the TGI (SK-MEL-2 melanoma) was greater than 100 µM and the GI50 (786-0 renal) was 33.2 µM. For the same molecule, the TGI (786-0 renal) was greater than 100 µM, the GI50 (M14 melanoma) was 20.2 µM and the TGI (M14 melanoma) was 55.3 µM. It also gave a GI50 (EKVX NSCLC) of 29 µM, a TGI (EKVX NSCLC) greater than 100 µM and a GI50 (UO-31 renal) of 16.8 µM. The TGI (UO-31 renal) was greater than 100 µM, the GI50 (SW-620 colon) was 30.4 µM and the TGI (SW-620 colon) was greater than 100 µM. The GI50 (PC-3 prostate) was 16 µM, the TGI (PC-3 prostate) was 82.2 µM and the GI50 (SK-MEL-28 melanoma) was 20 µM. For the same molecule, the TGI (SK-MEL-28 melanoma) was 74.8 µM, the GI50 (CCRF-CEM leukemia) was 6.71 µM and the TGI (CCRF-CEM leukemia) was 45.4 µM. It also gave a GI50 (ACHN renal) of 18.7 µM and a TGI (ACHN renal) greater than 100 µM.
